Results published in patent US12344599B2, “Prodigiosin analogs and methods of use” (Institute For Cancer Research, priority 2016, dated 2025).
pIC50: −log10 of the molar value. Entries after “also recorded” stand apart in the source; their conditions may differ.

Assays:
[1] = test system: human cancer cells with mutant p53; assay: CellTiterGlo cell viability assay, panel of cancer cell lines; type: cell-based
Description: (§1) • 1) Cell lines: HT29, SW480, DLD-1, HCT116, and p53-null HCT116 cells, H1975, MDA-MD-231, U251, FaDu, CAL-27, PANC-1, Aspc-1, and MRC5 were obtained from the ATCC and cultured as recommended. Cells were regularly authenticated by bioluminescence, growth, and morphologic observation. The cells were routinely examined for Mycoplasma and all cell lines underwent STR authentication. • 2) Western blotting: After treatment, protein lysates were collected for Western blot analysis. 15 μg of protein was used for SDS-PAGE. After primary and secondary antibody incubations, the signal was detected by chemiluminescent detection kit, imaged by Syngene (Imgen Technologies). […] The cell viability was assessed by CellTiterGlo bioluminescent cell proliferation assay (Promega), following the manufacturer's protocol. Bioluminescence imaging was measured using the IVIS imager. Percentage of cell viability (mean±SEM) at each dose was calculated against the respective DMSO control. The IC50 values were determined from the sigmoidal dose-response curves using GraphPad Prims4. • 4) Caspase activity assay: Cells were seeded in 96-well plate (1×10^4 cells/well). […] The caspase 3/7 activity was assessed by Caspase-Glo® 3/7 Assay kit (Promega), following the manufacturer's protocol. Bioluminescence imaging was measured using the IVIS imager. […]

H1975 = assay: CellTiterGlo cell viability assay, H1975; type: cell-based; conditions: Homo sapiens, NCI-H1975; H1975, NSCLC, p53 R273H, 72 hours
Description: as §1

HT29 = assay: CellTiterGlo cell viability assay, HT29; type: cell-based; conditions: Homo sapiens, HT-29; HT29, colorectal cancer, p53 R273H, 72 hours
Description: as §1

MDA-MB-468 = assay: CellTiterGlo cell viability assay, MDA-MB-468; type: cell-based; conditions: Homo sapiens; MDA-MB-468, breast cancer, p53 R273H, 72 hours
[2] = test system: p53 target genes in HT29 cells; assay: RNA-Seq gene profiling with IPA analysis; type: cell-based, human; conditions: HT29, 1 μM for 24 hours
Description: Having confirmed that PG3-Oc induces apoptosis in multiple p53-expressing mutant cancer cell lines, whether this small molecule restored p53 pathway signaling was investigated in HT29 cells after treatment with 1 μM PG3-Oc for 24 hours. For this purpose, gene profiling was performed by RNA-Seq and bioinformatics analysis, such as IPA (Ingenuity pathway analysis), GSEA (gene set enrichment analysis) and GO (gene ontology) (See details at Methods and Materials). […] Key p53 target gene CDKN1A (p21) that negatively regulate cell cycle and other p53 target genes that regulate apoptosis such as, TNFRSF10B (DR5), BBC3 (PUMA), BIRC5 (Survivin), TP53INP1 (Teap) were identified in canonical p53 pathway analysis. […] To verify that the behavior of regulation of p53 target genes by PG3-Oc is similar to p53 protein, based on published data (Fischer, Oncogene, 2017, 36(28), 3943-3956), genes directly repressed (FIG. 89) and activated (FIG. 90) by the p53 transcription factor were selected. […] This implicates that PG3-Oc is able to restore the p53 pathway.

## CCCCCCCCOC(=O)CCc1c(C)[nH]c(/C=C2\N=C(c3ccc[nH]3)C=C2OC)c1C [PG3-Oc, Octyl (Z)-3-(5-((4′-methoxy-1H,5′H-[2,2′-bipyrrol]-5′-ylidene)methyl)-2,4-dimethyl-1H-pyrrol-3-yl)propanoate]
[1]; HCT116 and SW480, 72 hours, comparison with prodigiosin and obatoclax
  potency for inhibition of cancer cell growth: comparable with prodigiosin (P) and obatoclax (Ob); also recorded: comparable to prodigiosin and obatoclax
[1]; panel of human cancer cell lines with mutant p53, 72 hours
  IC50 values: within the nano-molar range
H1975
  pIC50: 6.72
HT29
  pIC50: 7.18
MDA-MB-468
  pIC50: 7.01
[2]
  PMAIP1 (Noxa) increase as compared to control: 1.9 fold
